Reference: US10710978B2, “STK4 inhibitors for treatment of hematologic malignancies” (Dana-Farber Cancer Institute, Inc., priority 2015, dated 2020)
Where two headings read alike, the source gives them in different places.

Columns and labels:
CaMK2d = CaMK2d (Homo sapiens (Human), UniProt Q13557); assay: KiNativ assay; format: binding; conditions: H929 live cell
Protocol: (§1) Biochemical IC50s of the compounds of the present disclosure against various kinases were measured in a KiNativ assay. Compounds were screened in duplicate at 10 μM in H929 live cell. IC50 was measured via Mass spectroscopy (MS).

MAP3K2, MAP3K3 = assay: KiNativ assay; format: binding; conditions: H929 live cell
Protocol: as §1

SNRK = SNRK (Homo sapiens (Human), UniProt Q9NRH2); assay: KiNativ assay; format: binding; conditions: H929 live cell
Protocol: as §1

MAP2K4 = MAP2K4 (Homo sapiens (Human), UniProt P45985); assay: KiNativ assay; format: binding; conditions: H929 live cell
Protocol: as §1

GSK3A = GSK3A (Homo sapiens (Human), UniProt P49840); assay: KiNativ assay; format: binding; conditions: H929 live cell
Protocol: as §1

p38d, p38g = assay: KiNativ assay; format: binding; conditions: H929 live cell
Protocol: as §1

TLK2 = TLK2 (Homo sapiens (Human), UniProt Q86UE8); assay: KiNativ assay; format: binding; conditions: H929 live cell
Protocol: as §1

BARK1 = BARK1 (Homo sapiens (Human), UniProt P25098); assay: KiNativ assay; format: binding; conditions: H929 live cell
Chain of BARK1 (P25098 whole entry): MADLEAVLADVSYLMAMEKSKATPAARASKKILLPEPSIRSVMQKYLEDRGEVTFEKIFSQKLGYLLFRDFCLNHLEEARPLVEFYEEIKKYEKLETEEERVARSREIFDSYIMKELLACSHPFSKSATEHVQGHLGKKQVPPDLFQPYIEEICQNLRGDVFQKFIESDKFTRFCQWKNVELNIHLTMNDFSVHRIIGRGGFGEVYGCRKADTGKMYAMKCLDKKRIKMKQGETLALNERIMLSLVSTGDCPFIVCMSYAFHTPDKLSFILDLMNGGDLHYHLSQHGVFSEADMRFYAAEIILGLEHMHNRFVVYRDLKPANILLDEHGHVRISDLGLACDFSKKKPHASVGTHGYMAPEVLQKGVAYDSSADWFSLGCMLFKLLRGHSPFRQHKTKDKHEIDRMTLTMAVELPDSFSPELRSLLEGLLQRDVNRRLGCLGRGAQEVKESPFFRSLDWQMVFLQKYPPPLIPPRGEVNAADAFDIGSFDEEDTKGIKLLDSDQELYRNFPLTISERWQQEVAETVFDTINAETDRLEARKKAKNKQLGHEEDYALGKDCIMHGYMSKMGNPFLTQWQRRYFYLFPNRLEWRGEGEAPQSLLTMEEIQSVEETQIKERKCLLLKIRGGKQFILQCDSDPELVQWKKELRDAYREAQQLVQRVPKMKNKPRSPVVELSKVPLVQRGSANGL
Protocol: as §1

MSK1 domain1 = MSK1 domain1 (Homo sapiens (Human), UniProt O75582); assay: KiNativ assay; format: binding; conditions: H929 live cell
Protocol: as §1

SRPK1 = SRPK1 (Homo sapiens (Human), UniProt Q96SB4); assay: KiNativ assay; format: binding; conditions: H929 live cell
Chain of SRPK1 (Q96SB4 whole entry): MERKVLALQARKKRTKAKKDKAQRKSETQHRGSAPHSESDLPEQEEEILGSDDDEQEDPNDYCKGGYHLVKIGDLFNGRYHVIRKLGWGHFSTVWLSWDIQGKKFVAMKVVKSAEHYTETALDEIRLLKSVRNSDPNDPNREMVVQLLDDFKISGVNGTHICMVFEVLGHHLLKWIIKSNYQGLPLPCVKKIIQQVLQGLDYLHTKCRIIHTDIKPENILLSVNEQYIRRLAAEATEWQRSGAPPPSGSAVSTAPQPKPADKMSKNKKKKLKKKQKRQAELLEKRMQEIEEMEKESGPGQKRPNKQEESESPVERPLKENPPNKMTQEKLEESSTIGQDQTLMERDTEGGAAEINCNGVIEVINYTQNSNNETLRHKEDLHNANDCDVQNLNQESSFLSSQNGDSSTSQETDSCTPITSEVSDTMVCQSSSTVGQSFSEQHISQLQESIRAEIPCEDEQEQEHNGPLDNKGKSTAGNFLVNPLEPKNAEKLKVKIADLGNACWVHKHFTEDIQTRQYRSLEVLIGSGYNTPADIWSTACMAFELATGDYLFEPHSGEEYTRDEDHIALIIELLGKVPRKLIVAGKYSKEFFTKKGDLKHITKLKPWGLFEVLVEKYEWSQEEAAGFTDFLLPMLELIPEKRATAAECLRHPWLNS
Protocol: as §1

ATR = ATR (Homo sapiens (Human), UniProt Q13535); assay: KiNativ assay; format: binding; conditions: H929 live cell
Protocol: as §1

MARK3 = MARK3 (Homo sapiens (Human), UniProt P27448); assay: KiNativ assay; format: binding; conditions: H929 live cell
Protocol: as §1

GCN2 domain2 = GCN2 domain2 (Homo sapiens (Human), UniProt Q9P2K8); assay: KiNativ assay; format: binding; conditions: H929 live cell
Chain of GCN2 domain2 (Q9P2K8 whole entry, the tested form may be a part): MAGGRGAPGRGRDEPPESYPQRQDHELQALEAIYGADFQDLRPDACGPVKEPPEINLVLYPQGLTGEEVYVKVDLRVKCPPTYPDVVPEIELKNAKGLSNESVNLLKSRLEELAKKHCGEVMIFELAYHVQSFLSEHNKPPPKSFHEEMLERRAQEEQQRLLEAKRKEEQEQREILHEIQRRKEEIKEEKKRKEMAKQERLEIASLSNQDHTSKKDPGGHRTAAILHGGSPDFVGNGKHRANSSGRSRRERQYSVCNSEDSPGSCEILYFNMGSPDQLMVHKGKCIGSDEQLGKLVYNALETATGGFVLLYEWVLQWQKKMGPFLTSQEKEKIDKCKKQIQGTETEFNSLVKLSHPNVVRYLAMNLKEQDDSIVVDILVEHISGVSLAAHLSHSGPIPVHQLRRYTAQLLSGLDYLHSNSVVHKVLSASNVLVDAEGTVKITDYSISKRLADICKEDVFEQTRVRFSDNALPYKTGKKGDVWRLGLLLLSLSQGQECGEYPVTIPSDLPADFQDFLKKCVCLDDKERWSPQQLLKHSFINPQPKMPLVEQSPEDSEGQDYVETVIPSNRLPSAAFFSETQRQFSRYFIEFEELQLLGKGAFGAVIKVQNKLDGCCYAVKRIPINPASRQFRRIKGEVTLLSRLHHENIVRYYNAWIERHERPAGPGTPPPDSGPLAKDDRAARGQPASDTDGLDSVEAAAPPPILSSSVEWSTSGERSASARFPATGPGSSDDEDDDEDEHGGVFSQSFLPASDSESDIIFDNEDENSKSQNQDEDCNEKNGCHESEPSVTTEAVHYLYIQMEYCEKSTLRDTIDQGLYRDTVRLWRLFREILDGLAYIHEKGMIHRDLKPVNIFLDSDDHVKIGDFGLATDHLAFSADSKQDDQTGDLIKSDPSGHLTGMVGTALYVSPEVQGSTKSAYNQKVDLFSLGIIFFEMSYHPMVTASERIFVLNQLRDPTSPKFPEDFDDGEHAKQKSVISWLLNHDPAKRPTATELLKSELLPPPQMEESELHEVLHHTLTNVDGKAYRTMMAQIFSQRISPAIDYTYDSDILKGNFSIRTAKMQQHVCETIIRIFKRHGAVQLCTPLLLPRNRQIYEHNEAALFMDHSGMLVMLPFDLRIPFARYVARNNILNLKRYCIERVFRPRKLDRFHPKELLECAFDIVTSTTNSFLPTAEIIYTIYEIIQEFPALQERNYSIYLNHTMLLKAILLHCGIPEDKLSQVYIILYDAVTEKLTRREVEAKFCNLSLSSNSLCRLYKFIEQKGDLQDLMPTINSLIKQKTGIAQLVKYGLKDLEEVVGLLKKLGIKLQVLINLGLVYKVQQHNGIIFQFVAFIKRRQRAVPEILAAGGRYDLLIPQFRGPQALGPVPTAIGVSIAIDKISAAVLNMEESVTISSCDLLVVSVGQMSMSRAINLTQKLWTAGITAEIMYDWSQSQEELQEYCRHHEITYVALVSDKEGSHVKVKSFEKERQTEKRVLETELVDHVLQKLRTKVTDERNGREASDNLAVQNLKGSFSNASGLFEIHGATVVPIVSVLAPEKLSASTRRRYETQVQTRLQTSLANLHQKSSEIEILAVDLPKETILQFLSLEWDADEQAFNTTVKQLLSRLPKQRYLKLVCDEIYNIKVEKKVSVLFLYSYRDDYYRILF
Protocol: as §1

AurA = AurA (Homo sapiens (Human), UniProt O14965); assay: KiNativ assay; format: binding; conditions: H929 live cell
Chain of AurA (O14965 whole entry): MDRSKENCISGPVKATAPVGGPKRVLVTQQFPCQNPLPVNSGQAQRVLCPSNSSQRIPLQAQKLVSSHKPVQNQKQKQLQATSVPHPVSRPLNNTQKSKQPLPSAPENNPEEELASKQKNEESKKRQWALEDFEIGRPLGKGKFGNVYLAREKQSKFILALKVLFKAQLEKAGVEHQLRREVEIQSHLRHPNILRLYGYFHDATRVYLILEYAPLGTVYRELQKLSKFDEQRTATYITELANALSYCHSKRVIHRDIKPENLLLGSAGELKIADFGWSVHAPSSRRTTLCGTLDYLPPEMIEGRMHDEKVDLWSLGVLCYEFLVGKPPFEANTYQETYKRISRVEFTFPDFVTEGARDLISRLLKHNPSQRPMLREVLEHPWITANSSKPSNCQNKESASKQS
Protocol: as §1

FYN, SRC, YES = assay: KiNativ assay; format: binding; conditions: H929 live cell
Protocol: as §1

MARK2, MARK3 = assay: KiNativ assay; format: binding; conditions: H929 live cell
Protocol: as §1

PIK3CB = PIK3CB (Homo sapiens (Human), UniProt P42338); assay: KiNativ assay; format: binding; conditions: H929 live cell
Protocol: as §1

NEK7 = NEK7 (Homo sapiens (Human), UniProt Q8TDX7); assay: KiNativ assay; format: binding; conditions: H929 live cell
Protocol: as §1

PIP4K2C = PIP4K2C (Homo sapiens (Human), UniProt Q8TBX8); assay: KiNativ assay; format: binding; conditions: H929 live cell
Chain of PIP4K2C (Q8TBX8 whole entry): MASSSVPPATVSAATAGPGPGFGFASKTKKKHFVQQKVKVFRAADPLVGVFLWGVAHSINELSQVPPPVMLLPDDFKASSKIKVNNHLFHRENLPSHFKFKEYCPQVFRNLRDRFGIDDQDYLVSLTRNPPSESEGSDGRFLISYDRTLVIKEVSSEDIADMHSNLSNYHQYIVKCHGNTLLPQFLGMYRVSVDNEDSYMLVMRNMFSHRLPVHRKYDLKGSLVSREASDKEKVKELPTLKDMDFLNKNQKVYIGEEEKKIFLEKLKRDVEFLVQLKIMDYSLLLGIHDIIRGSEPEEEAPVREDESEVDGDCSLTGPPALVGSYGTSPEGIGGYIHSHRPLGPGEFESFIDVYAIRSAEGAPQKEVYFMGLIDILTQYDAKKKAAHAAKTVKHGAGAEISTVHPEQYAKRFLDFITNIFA
Protocol: as §1

CDK2 = CDK2 (Homo sapiens (Human), UniProt P24941); assay: KiNativ assay; format: binding; conditions: H929 live cell
Protocol: as §1

NEK8 = NEK8 (Homo sapiens (Human), UniProt Q86SG6); assay: KiNativ assay; format: binding; conditions: H929 live cell
Chain of NEK8 (Q86SG6 whole entry): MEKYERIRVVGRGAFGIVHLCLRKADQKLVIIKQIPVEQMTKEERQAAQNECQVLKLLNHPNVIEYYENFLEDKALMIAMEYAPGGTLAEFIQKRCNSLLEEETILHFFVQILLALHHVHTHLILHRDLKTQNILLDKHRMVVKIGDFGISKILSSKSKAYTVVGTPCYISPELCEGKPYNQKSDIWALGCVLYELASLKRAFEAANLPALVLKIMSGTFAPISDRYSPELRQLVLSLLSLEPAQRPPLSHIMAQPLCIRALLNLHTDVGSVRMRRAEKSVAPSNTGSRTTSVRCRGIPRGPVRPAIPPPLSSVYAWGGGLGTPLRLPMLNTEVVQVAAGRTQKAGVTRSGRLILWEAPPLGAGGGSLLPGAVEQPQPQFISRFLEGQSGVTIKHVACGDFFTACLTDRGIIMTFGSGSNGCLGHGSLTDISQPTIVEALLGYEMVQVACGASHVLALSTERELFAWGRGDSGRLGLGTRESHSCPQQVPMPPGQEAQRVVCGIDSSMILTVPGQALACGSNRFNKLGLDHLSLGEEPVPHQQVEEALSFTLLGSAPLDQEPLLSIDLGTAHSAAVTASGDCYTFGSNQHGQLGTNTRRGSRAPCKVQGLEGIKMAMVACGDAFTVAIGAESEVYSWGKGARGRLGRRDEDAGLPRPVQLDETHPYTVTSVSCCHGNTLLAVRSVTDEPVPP
Protocol: as §1

MLK3 = MLK3 (Homo sapiens (Human), UniProt Q16584); assay: KiNativ assay; format: binding; conditions: H929 live cell
Protocol: as §1

NEK1 = NEK1 (Homo sapiens (Human), UniProt Q96PY6); assay: KiNativ assay; format: binding; conditions: H929 live cell
Protocol: as §1

CHK2 = CHK2 (Homo sapiens (Human), UniProt O96017); assay: KiNativ assay; format: binding; conditions: H929 live cell
Protocol: as §1

MAP3K1 = MAP3K1 (Homo sapiens (Human), UniProt Q13233); assay: KiNativ assay; format: binding; conditions: H929 live cell
Protocol: as §1

NDR2 = NDR2 (Homo sapiens (Human), UniProt Q9Y2H1); assay: KiNativ assay; format: binding; conditions: H929 live cell
Protocol: as §1

CLK2 = CLK2 (Homo sapiens (Human), UniProt P49760); assay: KiNativ assay; format: binding; conditions: H929 live cell
Protocol: as §1

STK4 (MST1) = STK4 (MST1) (Homo sapiens (Human), UniProt Q13043); assay: Z-lyte biochemical IC50 assay (Invitrogen); conditions: ATP concentration matched the Km
Protocol: (§2) STK4 (MST1), STK3 (MST2); STK24 (MST3) and MST4 Assays
(§3) Biochemical IC50s were measured at Invitrogen using Z-lyte technology. Briefly, for STK4, the 2×STK4 (MST1)/Ser/Thr 07 mixture was prepared in 50 mM HEPES pH 7.5, 0.01% BRIJ35, 10 mM MgCl2, 1 mM EGTA. The final 10 μL Kinase Reaction consisted of 6.25-160 ng STK4 (MST1) and 2 μM Ser/Thr 07 in 50 mM HEPES pH 7.5, 0.01% BRIJ-35, 10 mM MgCl2, 1 mM EGTA. After the 1 hour Kinase Reaction incubation, 5 μL of a 1:100000 dilution of Development Reagent A was added. Compounds were screened in a 10 point titration with 3-fold serial dilutions starting at a concentration of 10 μM. The biochemical IC50s against other STK family members were measured similarly. The ATP concentration used matched the Km for each kinase.

STK24 (MST3) = STK24 (MST3) (Homo sapiens (Human), UniProt Q9Y6E0); assay: Z-lyte biochemical IC50 assay (Invitrogen); conditions: ATP concentration matched the Km
Protocol: as §2, §3

Chain of CaMK2d (Q13557 whole entry): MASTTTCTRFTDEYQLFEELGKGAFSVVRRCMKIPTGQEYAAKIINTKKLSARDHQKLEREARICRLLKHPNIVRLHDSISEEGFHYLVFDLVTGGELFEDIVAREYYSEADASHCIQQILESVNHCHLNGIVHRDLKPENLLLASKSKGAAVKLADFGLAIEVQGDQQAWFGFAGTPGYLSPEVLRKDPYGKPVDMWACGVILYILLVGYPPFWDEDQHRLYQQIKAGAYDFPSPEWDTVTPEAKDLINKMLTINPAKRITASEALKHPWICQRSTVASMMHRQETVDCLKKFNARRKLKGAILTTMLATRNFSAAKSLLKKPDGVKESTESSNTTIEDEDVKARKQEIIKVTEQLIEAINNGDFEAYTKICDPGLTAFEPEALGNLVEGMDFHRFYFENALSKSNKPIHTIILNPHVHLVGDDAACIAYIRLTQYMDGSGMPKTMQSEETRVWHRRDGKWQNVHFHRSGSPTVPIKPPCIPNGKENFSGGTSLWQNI

Nc1ncc(-c2cccc3ncsc23)cc1-c1ccc2c(c1)CCNC2=O [Compound I-13, 6-(2-amino-5-(benzo[d]thiazol-7-yl)pyridin-3-yl)-3,4-dihydroisoquinolin-1(2H)-one]
inhibition at 10 µM (CaMK2d; read-out: % inhibition (range)): 0% | inhibition at 10 µM (CaMK2d; read-out: inhibition (10 μM)): -4.3% | % inhibition (range) (MAP3K2, MAP3K3; 10 μM): 0.0% | inhibition (10 μM) (MAP3K2, MAP3K3): 0.2% | inhibition at 10 µM (SNRK; read-out: % inhibition (range)): 0% | inhibition at 10 µM (SNRK; read-out: inhibition (10 μM)): 6.2% | inhibition at 10 µM (MAP2K4; read-out: % inhibition (range)): 35 to 50% | inhibition at 10 µM (MAP2K4; read-out: inhibition (10 μM)): 48.2% | inhibition at 10 µM (GSK3A; read-out: % inhibition (range)): > 90% | inhibition at 10 µM (GSK3A; read-out: inhibition (10 μM)): 91.6% | % inhibition (range) (p38d, p38g; 10 μM): 0.0% | inhibition (10 μM) (p38d, p38g): −43.7% | inhibition at 10 µM (TLK2; read-out: % inhibition (range)): 0% | inhibition at 10 µM (TLK2; read-out: inhibition (10 μM)): 12.6% | inhibition at 10 µM (BARK1; read-out: % inhibition (range)): 0% | inhibition at 10 µM (BARK1; read-out: inhibition (10 μM)): 21.8% | inhibition at 10 µM (MSK1 domain1; read-out: % inhibition (range)): 0% | inhibition at 10 µM (MSK1 domain1; read-out: inhibition (10 μM)): 9.5% | inhibition at 10 µM (SRPK1; read-out: % inhibition (range)): 0% | inhibition at 10 µM (SRPK1; read-out: inhibition (10 μM)): 10.8% | inhibition at 10 µM (ATR; read-out: % inhibition (range)): 0% | inhibition at 10 µM (ATR; read-out: inhibition (10 μM)): -16.1% | inhibition at 10 µM (MARK3; read-out: % inhibition (range)): 35 to 50% | inhibition at 10 µM (MARK3; read-out: inhibition (10 μM)): 46.2% | inhibition at 10 µM (GCN2 domain2; read-out: % inhibition (range)): 0% | inhibition at 10 µM (GCN2 domain2; read-out: inhibition (10 μM)): 13.5% | inhibition (10 μM) (AurA): 14.7% | inhibition at 10 µM (AurA; read-out: % inhibition (range)): 0% | inhibition at 10 µM (AurA; read-out: inhibition (10 μM)): 17.4% | % inhibition (range) (FYN, SRC, YES; 10 μM): 0.0% | inhibition (10 μM) (FYN, SRC, YES): 0.3% | % inhibition (range) (MARK2, MARK3; 10 μM): 0.0% | inhibition (10 μM) (MARK2, MARK3): 14.8% | inhibition at 10 µM (PIK3CB; read-out: % inhibition (range)): 0% | inhibition at 10 µM (PIK3CB; read-out: inhibition (10 μM)): 23.1% | inhibition at 10 µM (NEK7; read-out: % inhibition (range)): 0% | inhibition at 10 µM (NEK7; read-out: inhibition (10 μM)): -20.2% | inhibition at 10 µM (PIP4K2C; read-out: % inhibition (range)): 35 to 50% | inhibition at 10 µM (PIP4K2C; read-out: inhibition (10 μM)): 42% | inhibition at 10 µM (CDK2; read-out: % inhibition (range)): 0% | inhibition at 10 µM (CDK2; read-out: inhibition (10 μM)): 33.3% | inhibition at 10 µM (NEK8; read-out: % inhibition (range)): 0% | inhibition at 10 µM (NEK8; read-out: inhibition (10 μM)): 10.6% | inhibition at 10 µM (MLK3; read-out: % inhibition (range)): 0% | inhibition at 10 µM (MLK3; read-out: inhibition (10 μM)): -3.9% | inhibition at 10 µM (NEK1; read-out: % inhibition (range)): 0% | inhibition at 10 µM (NEK1; read-out: inhibition (10 μM)): 6.2% | inhibition at 10 µM (CHK2; read-out: % inhibition (range)): 0% | inhibition at 10 µM (CHK2; read-out: inhibition (10 μM)): 19.7% | inhibition at 10 µM (MAP3K1; read-out: % inhibition (range)): > 90% | inhibition at 10 µM (MAP3K1; read-out: inhibition (10 μM)): 90.2% | inhibition at 10 µM (NDR2; read-out: % inhibition (range)): 0% | inhibition at 10 µM (NDR2; read-out: inhibition (10 μM)): 4% | inhibition at 10 µM (CLK2; read-out: % inhibition (range)): 0% | inhibition at 10 µM (CLK2; read-out:): 19.1% | IC50 (STK4 (MST1)): < 40 nM | IC50 (STK24 (MST3)): > 900 nM
